{
  "source": "ChEMBL document CHEMBL1122304",
  "about": "“Synthesis and antiallergy activity of 5-oxo-5H-thiazolo[2,3-b]quinazolinecarboxylic acids” (1983)",
  "assay_type_in_all_cases": "functional",
  "key": {"[1]": {"system": "Rattus norvegicus", "test": "Antiallergic activity in the rat passive cutaneous anaphylaxis (PCA) test at 16 mg/kg upon intraperitoneal administration", "conditions": "ip"}, "[2]": {"system": "Rattus norvegicus", "test": "Antiallergic activity in the rat passive cutaneous anaphylaxis (PCA) test upon peroral administration; (range = 0.18-0.61)", "conditions": "po, read-out: ID50 (the source's name)"}, "[3]": {"system": "Rattus norvegicus", "test": "Antiallergic activity in the rat passive cutaneous anaphylaxis (PCA) test at 32 mg/kg upon peroral administration", "conditions": "route oral"}, "[4]": {"system": "Rattus norvegicus", "test": "Antiallergic activity in the rat passive cutaneous anaphylaxis (PCA) test upon peroral administration; (range = 0.58-1.91)", "conditions": "po, read-out: ID50 (the source's name)"}, "[5]": {"system": "Rattus norvegicus", "test": "Antiallergic activity in the rat passive cutaneous anaphylaxis (PCA) test at 32 mg/kg upon peroral administration after 10-minute pretreatment time", "conditions": "route oral"}, "[6]": {"system": "Rattus norvegicus", "test": "Antiallergic activity in the rat passive cutaneous anaphylaxis (PCA) test upon intraperitoneal administration of 16 mg/kg of the compound", "conditions": "ip"}, "[7]": {"system": "Rattus norvegicus", "test": "Antiallergic activity in the rat passive cutaneous anaphylaxis (PCA) test upon peroral administration; (range = 2.14-29.01)", "conditions": "po, read-out: ID50 (the source's name)"}, "[8]": {"system": "Rattus norvegicus", "test": "Antiallergic activity in the rat passive cutaneous anaphylaxis (PCA) test upon peroral administration; (range = 0.08-0.18)", "conditions": "po, read-out: ID50 (the source's name)"}, "[9]": {"system": "Rattus norvegicus", "test": "Antiallergic activity in the rat passive cutaneous anaphylaxis (PCA) test upon peroral administration", "conditions": "po, read-out: ID50 (the source's name)"}, "[10]": {"system": "Rattus norvegicus", "test": "Antiallergic activity in the rat passive cutaneous anaphylaxis (PCA) test upon peroral administration; (range = 0.98-4.02)", "conditions": "po, read-out: ID50 (the source's name)"}, "[11]": {"system": "Rattus norvegicus", "test": "Antiallergic activity in the rat passive cutaneous anaphylaxis (PCA) test at 32 mg/kg upon peroral administration with a 10-minute pretreatment time", "conditions": "route oral"}, "[12]": {"system": "Rattus norvegicus", "test": "Antiallergic activity in the rat passive cutaneous anaphylaxis (PCA) test upon peroral administration;(range = 0.07-0.23)", "conditions": "po, read-out: ID50 (the source's name)"}, "[13]": {"system": "Rattus norvegicus", "test": "Antiallergic activity in the rat passive cutaneous anaphylaxis (PCA) test upon intraperitoneal administration of 8 mg/kg of the compound", "conditions": "ip"}, "[14]": {"system": "Rattus norvegicus", "test": "Antiallergic activity in the rat passive cutaneous anaphylaxis (PCA) test upon peroral administration; (range = 0.04-0.14)", "conditions": "po, read-out: ID50 (the source's name)"}, "[15]": {"system": "Rattus norvegicus", "test": "Antiallergic activity in the rat passive cutaneous anaphylaxis (PCA) test upon peroral administration; (range of 0.89-6.85)", "conditions": "po, read-out: ID50 (the source's name)"}},
  "data": [
    {"smiles": "CC(C)c1ccc2nc3sc(C(=O)O)cn3c(=O)c2c1", "values": [
      {"measurement": "inhibition in vivo at 16 mg/kg", "setting": "[1]", "value": 89, "unit": "%"},
      {"measurement": "ED50", "setting": "[2]", "value": 0.33, "unit": "mg/kg"},
      {"measurement": "inhibition in vivo at 32 mg/kg", "setting": "[3]", "value": 86, "unit": "%"}
    ]},
    {"smiles": "CCC(C)c1ccc2nc3sc(C(=O)O)cn3c(=O)c2c1", "note": "(stereo unspecified)", "values": [
      {"measurement": "ED50", "setting": "[4]", "value": 1.01, "unit": "mg/kg"},
      {"measurement": "inhibition in vivo at 32 mg/kg", "setting": "[5]", "value": 64, "unit": "%"},
      {"measurement": "inhibition in vivo at 16 mg/kg", "setting": "[6]", "value": 59, "unit": "%"}
    ]},
    {"smiles": "O=C(O)c1cn2c(=O)c3cc(C4CC4)ccc3nc2s1", "values": [
      {"measurement": "ED50", "setting": "[7]", "value": 6.02, "unit": "mg/kg"},
      {"measurement": "inhibition in vivo at 32 mg/kg", "setting": "[3]", "value": 100, "unit": "%"}
    ]},
    {"smiles": "O=C(O)c1cn2c(=O)c3ccccc3nc2s1", "values": [
      {"measurement": "inhibition in vivo at 16 mg/kg", "setting": "[6]", "value": 80, "unit": "%"}
    ]},
    {"smiles": "CC(C)c1cn2c(=O)c3cc(C(=O)O)ccc3nc2s1", "values": [
      {"measurement": "ED50", "setting": "[8]", "value": 0.11, "unit": "mg/kg"},
      {"measurement": "inhibition in vivo at 32 mg/kg", "setting": "[3]", "value": 100, "unit": "%"},
      {"measurement": "inhibition in vivo at 16 mg/kg", "setting": "[6]", "value": 100, "unit": "%"}
    ]},
    {"smiles": "Cc1cn2c(=O)c3cc(C(=O)O)ccc3nc2s1", "values": [
      {"measurement": "ED50", "setting": "[9]", "value": "> 10", "unit": "mg/kg"},
      {"measurement": "inhibition in vivo at 32 mg/kg", "setting": "[3]", "value": 79, "unit": "%"}
    ]},
    {"smiles": "C[S+]([O-])c1ccc2nc3sc(C(=O)O)cn3c(=O)c2c1", "note": "(stereo unspecified)", "values": [
      {"measurement": "ED50", "setting": "[10]", "value": 1.82, "unit": "mg/kg"},
      {"measurement": "inhibition in vivo at 16 mg/kg", "setting": "[6]", "value": 55, "unit": "%"},
      {"measurement": "inhibition in vivo at 32 mg/kg", "setting": "[11]", "value": 67, "unit": "%"}
    ]},
    {"smiles": "CSc1ccc2nc3sc(C(=O)O)cn3c(=O)c2c1", "values": [
      {"measurement": "ED50", "setting": "[12]", "value": 0.12, "unit": "mg/kg"},
      {"measurement": "inhibition in vivo at 32 mg/kg", "setting": "[3]", "value": 87, "unit": "%"}
    ]},
    {"smiles": "O=C(O)c1cc(=O)c2c(OCC(O)COc3cccc4oc(C(=O)O)cc(=O)c34)cccc2o1", "note": "[CROMOLYN SODIUM]", "values": [
      {"measurement": "inhibition in vivo at 8 mg/kg", "setting": "[13]", "value": 46, "unit": "%"},
      {"measurement": "inhibition in vivo at 32 mg/kg", "setting": "[5]", "value": 18, "unit": "%"}
    ]},
    {"smiles": "COc1cc2nc3sc(C(=O)O)cn3c(=O)c2cc1OC", "values": [
      {"measurement": "inhibition in vivo at 16 mg/kg", "setting": "[6]", "value": 89, "unit": "%"}
    ]},
    {"smiles": "CC(C)c1cc2c(=O)n3cc(C(=O)O)ccc3nc2s1", "values": [
      {"measurement": "inhibition in vivo at 16 mg/kg", "setting": "[1]", "value": 89, "unit": "%"},
      {"measurement": "inhibition in vivo at 32 mg/kg", "setting": "[3]", "value": 54, "unit": "%"}
    ]},
    {"smiles": "O=C(O)c1ccc2nc3sccn3c(=O)c2c1", "values": [
      {"measurement": "ED50", "setting": "[9]", "value": "> 10", "unit": "mg/kg"},
      {"measurement": "inhibition in vivo at 32 mg/kg", "setting": "[3]", "value": 66, "unit": "%"},
      {"measurement": "inhibition in vivo at 16 mg/kg", "setting": "[6]", "value": 62, "unit": "%"}
    ]},
    {"smiles": "CC(C)c1cc(C(C)C)c2nc3sc(C(=O)O)cn3c(=O)c2c1", "values": [
      {"measurement": "ED50", "setting": "[9]", "value": "> 10", "unit": "mg/kg"},
      {"measurement": "inhibition in vivo at 16 mg/kg", "setting": "[1]", "value": 100, "unit": "%"},
      {"measurement": "inhibition in vivo at 32 mg/kg", "setting": "[3]", "value": 19, "unit": "%"}
    ]},
    {"smiles": "COc1ccc2nc3sc(C(=O)O)cn3c(=O)c2c1", "values": [
      {"measurement": "ED50", "setting": "[14]", "value": 0.07, "unit": "mg/kg"},
      {"measurement": "inhibition in vivo at 32 mg/kg", "setting": "[3]", "value": 78, "unit": "%"},
      {"measurement": "inhibition in vivo at 16 mg/kg", "setting": "[6]", "value": 100, "unit": "%"}
    ]},
    {"smiles": "CC(C)Cc1ccc2nc3sc(C(=O)O)cn3c(=O)c2c1", "values": [
      {"measurement": "ED50", "setting": "[15]", "value": 2.12, "unit": "mg/kg"},
      {"measurement": "inhibition in vivo at 32 mg/kg", "setting": "[5]", "value": 78, "unit": "%"},
      {"measurement": "inhibition in vivo at 16 mg/kg", "setting": "[6]", "value": 62, "unit": "%"}
    ]}
  ]
}
